Test results published in patent US20230172971A1, “ANTIBIOTIC AND ANTI-INFLAMMATORY COMPOSITIONS AND METHODS OF USE” (priority 2020, published 2023).

What was measured:
[1] = test system: E. coli BAA-2452; assay: H33342 bisbenzimide dye uptake assay, E. coli BAA-2452; type: cell-based, Escherichia coli; conditions: E. coli BAA-2452, 7×10^8 CFU/mL, non-lethal concentration
Procedure: Overnight culture of E. coli BAA-2452™ and K. pneumoniae BAA-2146™ were used to inoculate fresh CAMHB media for another 5 hr at 35° C. with shaking. Bacterial cells were collected by centrifugation at 6000 rpm for 40 min and resuspended in PBS. The OD600 of the cell suspension was adjusted to about 1.0 and kept at room temperature during the experiment. Aliquots (180 μL/well) of the cell suspension were transferred to a 96-well flat-bottom black plate in the format of column 1, PBS blank; column 2, untreated control cells; column 3, cells+potentiator (sub-lethal concentration). Five technical replicates of each group were conducted. Fluorescent probe Hoechst 33342 bisbenzimide (H33342) was added (20 μL) to each well with a final concentration of 5 μM. Fluorescence was read immediately after the addition of H33342 by a Tecan Infinite M20 plate reader with the excitation and emission filters of 355 and 460 nm for H33342. Fluorescence data were normalized to the emission before cells were added in the PBS control, and they were plotted against time to show the cellular uptake of H33342 over 10 min. Control experiments of dye+600-Da BPEI were unchanged from fluorescence emission values obtained with dye only.

[2] = test system: Gram-negative bacteria; conditions: paradigm; cited from earlier work
[3] = test system: Gram-positive bacteria; conditions: paradigm; cited from earlier work
[4] = test system: MRSA OU11; assay: Resazurin cell viability assay, MRSA OU11; type: cell-based, Staphylococcus aureus
Procedure: Cell viability assays with resazurin were performed with MRSA OU11 cells grown in TSB as similar to the procedure of cell-permeation assays until they reach a density of ˜7×10^9 CFU/mL. Then the cell culture was transferred into a 96-well plate (100 μL/well) for BPEI or polymyxin B (PmB) treatments at varied concentrations from 64-512 μg/mL. Controls of untreated and positive control of 5% bleach were also conducted. The plate was incubated at 37° C. overnight. Resazurin (50 μL; final concentration of 50 μg/mL) was then added and, after 1 hour of incubation, the fluorescence intensity was measured (λex=560 nm; λen, =590 nm).

polymyxin B
intracellular accumulation of H33342 (fluorescence) vs untreated cells [1]: increases | MIC [2]: ≤ 2 µg/mL | concentration required (MIC) [3]: ≥ 32 µg/mL | cell viability (resazurin) ([4]; MRSA OU11, 64 μg/mL PmB): greater cell death than 512 μg/mL 600-Da BPEI | cell viability (resazurin) ([4]; MRSA OU11, 512 μg/mL PmB): complete loss of MRSA OU11 viability | cell viability (resazurin) ([4]; MRSA OU11, ~7×10^9 CFU/mL, 64-512 μg/mL, overnight): more lethal
